Each cell line was assayed with CCN1CCN(c2ccc(Nc3cc(N(C)C(=O)Nc4c(Cl)c(OC)cc(OC)c4Cl)ncn3)cc2)CC1 [BGJ398] + CS(=O)(=O)N1CCN(Cc2cc3nc(-c4cccc5[nH]ncc45)nc(N4CCOCC4)c3s2)CC1 [Pictilisib] (partner 1 µM) (assay: relative viability (nuclei count vs DMSO), 5 days (fraction); higher = more cells survive). Conditions: first compound 0.01 µM.
Outline: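 Five library-drug doses in √10 steps were combined with a fixed anchor-drug dose, or a single drug was given alone, by pin tool to lung cancer cell lines in 1536-well plates the day after seeding. Nuclei were stained and counted after 5 days. Relative viability is the nuclei count in treated wells over that in vehicle wells, taken as the median of duplicate plates.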
NCI-H2405 showed a relative viability of 0.406.
HOP-62 was tested, and the relative viability was 0.731.
With HCC-44 the relative viability was 0.544.
With LU99A the relative viability was 0.281.
With BEN the relative viability was 0.491.
HARA showed a relative viability of 0.346.
With HCC-78 the relative viability was 0.184.
With NCI-H322M the relative viability was 0.511.
LCLC-97TM1 gave a relative viability of 0.186.
In the case of A-427, the relative viability is reported as 0.622.
Work on NCI-H441 yielded a relative viability of 0.416.
In the case of NCI-H1734, the relative viability is reported as 0.421.
NCI-H460 was tested, and the relative viability was 0.343.
NCI-H2347 showed a relative viability of 0.615.
For NCI-H1395, the relative viability was 0.664.
201T was tested, and the relative viability was 0.804.
NCI-H1915 gave a relative viability of 0.913.
For HCC-827, the relative viability was 0.961.
LXF-289 was tested, and the relative viability was 0.773.
NCI-H23 gave a relative viability of 0.545.
NCI-H647 was tested, and the relative viability was 0.406.
NCI-H1651 showed a relative viability of 0.46.
EPLC-272H gave a relative viability of 0.323.
Cell Line NCI-H1792 has a relative viability of 0.229.
With NCI-H1355 the relative viability was 0.396.
Work on NCI-H3122 yielded a relative viability of 0.609.
For NCI-H1437, the relative viability was 0.375.
For NCI-H1755, the relative viability was 0.443.
HCC-15 showed a relative viability of 0.67.
For NCI-H1793, the relative viability was 0.296.
PC-14 showed a relative viability of 0.696.
EKVX showed a relative viability of 0.437.

Same assay, conditions: first compound 0.03162 µM
For NCI-H2405, the relative viability was 0.587.
Work on HOP-62 yielded a relative viability of 0.768.
HCC-44 gave a relative viability of 0.671.
For LU99A, the relative viability was 0.314.
For BEN, the relative viability was 0.609.
HARA showed a relative viability of 0.426.
HCC-78 gave a relative viability of 0.217.
Cell Line NCI-H322M has a relative viability of 0.415.
LCLC-97TM1 showed a relative viability of 0.189.
In the case of A-427, the relative viability is reported as 0.644.
For NCI-H441, the relative viability was 0.496.
With NCI-H1734 the relative viability was 0.493.
In the case of NCI-H460, the relative viability is reported as 0.435.
NCI-H2347 gave a relative viability of 0.964.
For NCI-H1395, the relative viability was 0.674.
201T showed a relative viability of 0.659.
Cell Line NCI-H1915 has a relative viability of 0.904.
For HCC-827, the relative viability was 0.696.
In the case of LXF-289, the relative viability is reported as 0.707.
NCI-H23 was tested, and the relative viability was 0.487.
Work on NCI-H647 yielded a relative viability of 0.511.
NCI-H1651 gave a relative viability of 0.625.
In the case of EPLC-272H, the relative viability is reported as 0.296.
NCI-H1792 showed a relative viability of 0.32.
NCI-H1355 showed a relative viability of 0.477.
NCI-H3122 was tested, and the relative viability was 0.652.
Cell Line NCI-H1437 has a relative viability of 0.514.
NCI-H1755 showed a relative viability of 0.446.
With HCC-15 the relative viability was 0.703.
In the case of PC-14, the relative viability is reported as 0.346.
EKVX was tested, and the relative viability was 0.395.

Same assay, conditions: first compound 0.1 µM
NCI-H2405 gave a relative viability of 0.42.
Work on HOP-62 yielded a relative viability of 0.649.
For HCC-44, the relative viability was 0.682.
LU99A was tested, and the relative viability was 0.302.
For BEN, the relative viability was 0.534.
For HARA, the relative viability was 0.371.
HCC-78 showed a relative viability of 0.188.
In the case of NCI-H322M, the relative viability is reported as 0.508.
In the case of LCLC-97TM1, the relative viability is reported as 0.207.
A-427 showed a relative viability of 0.506.
NCI-H441 showed a relative viability of 0.558.
In the case of NCI-H1734, the relative viability is reported as 0.451.
For NCI-H460, the relative viability was 0.393.
NCI-H2347 showed a relative viability of 0.591.
In the case of NCI-H1395, the relative viability is reported as 0.568.
In the case of 201T, the relative viability is reported as 0.641.
NCI-H1915 was tested, and the relative viability was 0.906.
Work on HCC-827 yielded a relative viability of 0.977.
Cell Line LXF-289 has a relative viability of 0.682.
With NCI-H23 the relative viability was 0.477.
NCI-H647 showed a relative viability of 0.38.
Work on NCI-H1651 yielded a relative viability of 0.574.
With EPLC-272H the relative viability was 0.255.
For NCI-H1792, the relative viability was 0.26.
For NCI-H1355, the relative viability was 0.5.
NCI-H3122 gave a relative viability of 0.625.
For NCI-H1437, the relative viability was 0.439.
NCI-H1755 gave a relative viability of 0.361.
In the case of HCC-15, the relative viability is reported as 0.79.
With NCI-H1793 the relative viability was 0.265.
With PC-14 the relative viability was 0.92.
EKVX showed a relative viability of 0.479.

Same assay, conditions: first compound 0.3162 µM
In the case of NCI-H2405, the relative viability is reported as 0.482.
HOP-62 showed a relative viability of 1.16.
HCC-44 showed a relative viability of 0.602.
Work on LU99A yielded a relative viability of 0.307.
With BEN the relative viability was 0.478.
HARA was tested, and the relative viability was 0.283.
Cell Line HCC-78 has a relative viability of 0.194.
NCI-H322M showed a relative viability of 0.432.
With LCLC-97TM1 the relative viability was 0.298.
For A-427, the relative viability was 0.334.
NCI-H441 showed a relative viability of 0.54.
NCI-H1734 was tested, and the relative viability was 0.407.
With NCI-H460 the relative viability was 0.408.
NCI-H2347 was tested, and the relative viability was 0.593.
Work on NCI-H1395 yielded a relative viability of 0.357.
201T was tested, and the relative viability was 0.652.
Work on NCI-H1915 yielded a relative viability of 1.03.
HCC-827 gave a relative viability of 0.817.
LXF-289 was tested, and the relative viability was 0.685.
In the case of NCI-H23, the relative viability is reported as 0.461.
Cell Line NCI-H647 has a relative viability of 0.401.
For NCI-H1651, the relative viability was 0.507.
EPLC-272H showed a relative viability of 0.255.
NCI-H1792 was tested, and the relative viability was 0.238.
Cell Line NCI-H1355 has a relative viability of 0.496.
Work on NCI-H3122 yielded a relative viability of 0.678.
NCI-H1437 was tested, and the relative viability was 0.494.
Cell Line NCI-H1755 has a relative viability of 0.349.
HCC-15 was tested, and the relative viability was 0.805.
In the case of NCI-H1793, the relative viability is reported as 0.203.
With PC-14 the relative viability was 0.669.
In the case of EKVX, the relative viability is reported as 0.406.

Same assay, conditions: first compound 1 µM
NCI-H2405 gave a relative viability of 0.421.
HOP-62 gave a relative viability of 0.669.
In the case of HCC-44, the relative viability is reported as 0.401.
LU99A was tested, and the relative viability was 0.261.
With BEN the relative viability was 0.473.
In the case of HARA, the relative viability is reported as 0.185.
Work on HCC-78 yielded a relative viability of 0.221.
NCI-H322M showed a relative viability of 0.515.
Cell Line LCLC-97TM1 has a relative viability of 0.163.
With A-427 the relative viability was 0.158.
Work on NCI-H441 yielded a relative viability of 0.487.
Cell Line NCI-H1734 has a relative viability of 0.476.
NCI-H460 showed a relative viability of 0.343.
NCI-H2347 was tested, and the relative viability was 0.918.
NCI-H1395 was tested, and the relative viability was 0.364.
201T showed a relative viability of 0.559.
For NCI-H1915, the relative viability was 0.97.
With HCC-827 the relative viability was 1.03.
Work on LXF-289 yielded a relative viability of 0.573.
NCI-H23 was tested, and the relative viability was 0.411.
NCI-H647 gave a relative viability of 0.29.
In the case of NCI-H1651, the relative viability is reported as 0.546.
EPLC-272H gave a relative viability of 0.18.
NCI-H1792 was tested, and the relative viability was 0.138.
Work on NCI-H1355 yielded a relative viability of 0.271.
Work on NCI-H3122 yielded a relative viability of 0.582.
NCI-H1437 gave a relative viability of 0.561.
NCI-H1755 showed a relative viability of 0.285.
HCC-15 gave a relative viability of 0.723.
In the case of NCI-H1793, the relative viability is reported as 0.196.
PC-14 showed a relative viability of 0.866.

Source: the supplement of paper PMC10307832
